Assay results as given in US9334249B2, “Inhibitors of cytomegalovirus” (Boehringer Ingelheim International GmbH, priority 2012, dated 2016).

Legend:
Assay type in all cases: cell-based, Human Cytomegalovirus
[1] = system: HCMV AD169-Bac-Luc2 US2-US6 clone #26 virus; assay: HCMV AD169-Bac luciferase assay (MRC-5 cells); settings: Human betaherpesvirus 5, AD169, MRC5, 72 h, read-out: EC50 (nM) Example B
Excerpt: HCMV AD169-Bac Luciferase Assay
This assay format is a luciferase reporter-based assay that determines the ability of compounds to inhibit the infection by detecting a luciferase signal decrease following the addition of BIGlo substrate (preparation indicated below) directly in the culture media. Mono-oxygenation of luciferin is catalyzed by luciferase in the presence of Mg2+, ATP and molecular oxygen. The generation of oxyluciferin is a luminescent reaction that can be detected with the proper platereader. Human Cytomegalovirus AD169-Bac is obtained from Dr. Thomas Shenk at Princeton University (reference paper Yu et al. 2002—J. Virol. 76 (5):2316-2328, herein incorporated by reference) and modified by recombineering to introduce a humanized firefly luciferase gene (Luc2) at the US2-US6 position in the HCMV genome. The virus is expanded in MRC-5 cells.
Serial dilutions of the DMSO stock compound solution are performed using DMSO in columns 2-11 and 14-23. DMSO alone is present in columns 1, 12, 13 and 24. Four μL of the DMSO serial dilutions is obtained and diluted using 96 μL of D-MEM 5% FBS culture medium to obtain 4% DMSO (7×).
To perform the assay, 7 μL of the freshly prepared 4% DMSO serial dilution plate is added to the assay plate containing 25 μL of MRC-5 cells plated the day before (10000 cells per well). Seventeen μL of diluted virus is added to columns 2-12 and 14-24 and only D-MEM 5% FBS medium to uninfected control (columns 1 and 13) for a final DMSO concentration of 0.6%. The virus dilution is based on the amount of virus required to obtain the highest luciferase signal possible without CPE (generally between 0.05 and 1 μL of virus stock per well or MOI=0.02). The assay plates are incubated at 37° C. with 5% CO2 for 3 days. Fifteen μL of room temperature BIGlo buffer is added to room temperature assay plates also incubated at room temperature for 15 minutes. The plates are sealed with TopSeal for biosafety and the luminescence signal is read on the TopCount plate reader (Perkin-Elmer) or equivalent.

HCMV AD169 virus [2] = assay: HCMV AD169 CPE assay (MTS dye reduction, MRC-5 cells); settings: Human betaherpesvirus 5, AD169, MRC5, 216 h, 9 days, read-out: EC50 (nM) Example A
Description: HCMV AD169 CPE Assay This assay format is a CPE (Cytopathic effect)-based assay that determines the ability of compounds to protect cells against infection with a dye reduction assay (MTS of CellTiter 96® AQueous Non-Radioactive Cell Proliferation Assay from Promega). The conversion of MTS into aqueous, soluble formazan is performed by dehydrogenase enzymes found in metabolically active cells. The quantity of formazan product determined by absorbance at 490 nm is directly proportional to the number of living cells in culture. [table] Serial dilutions of the DMSO stock compound solution are performed using DMSO in columns 2-11 and 14-23. DMSO alone is present in columns 1, 12, 13 and 24. Four μL of the DMSO serial dilutions is obtained and diluted using 96 μL of D-MEM 5% FBS culture medium to obtain 4% DMSO (7×). To perform the assay, 10 μL of the freshly prepared 4% DMSO serial dilution plate is added to the assay plate containing 40 μL of MRC-5 cells plated the day before (10000 cells per well). Twenty μL of diluted virus is added to columns 2-12 and 14-24 and only D-MEM 5% FBS medium to uninfected control (columns 1 and 13) for a final DMSO concentration of 0.6%. The virus dilution is based on the amount of virus required to obtain a Signal-to-Background of 3-4 (generally between 0.1 and 1 μL of virus stock per well or MOI=0.05). The assay plates are incubated at 37° C. with 5% CO2 for 9 days in order to obtain 100% CPE in infected control without compound (columns 12 and 24). Ten μL of freshly mixed room temperature MTS/PMS (1:20 v/v) is added and the plates are incubated at 37° C. with 5% CO2 for 4-5 h (until signal saturation at 2.3 in the 100% CPE control). The plates are sealed with TopSeal for biosafety and read on the Envision plate reader (Perkin-Elmer) or equivalent at OD 492 nm.

HCMV AD169 virus [3] = assay: HCMV AD169 qPCR 96-well assay (viral DNA replication, MRC-5 cells); settings: Human betaherpesvirus 5, AD169, MRC5, 72 h, qPCR of viral DNA, 3 days, read-out: EC50 (nM) Example C
Description: HCMV AD169 qPCR 96-Well Assay
The hCMV quantitative PCR (qPCR) assay evaluates the ability of a compound to inhibit, directly or indirectly, the replication of hCMV viral DNA during the first 72 h following the infection. Compounds that inhibit either entry or the hCMV polymerase are active in this assay. Compounds are tested in the qPCR assay in 96-well plates, using a 9-point dose-response with 8 compounds for each 96-well plate. The assay was adapted from the method described by Schnepf et al., Rapid determination of antiviral drug susceptibility of human cytomegalovirus by real-time PCR, Antiviral Research 81 (2009) 64-67. […]

Row | Compound | EC50 [1] [nM] | EC50 (HCMV AD169 virus [2]) [nM] | EC50 (HCMV AD169 virus [3]) [nM]
1 | O=C(Cn1ccc(NC(=O)c2cscn2)cc1=O)Nc1cccc(C(F)(F)F)c1 [Compound 1148] | 658 |  | 
2 | O=C(Cc1ccc(NC(=O)c2cscn2)cn1)Nc1cc(C(F)(F)F)cc(C(F)(F)F)c1 [Compound 1143] | 51 | 555 | 
3 | O=C(Cc1ccc(NC(=O)c2cscn2)cc1)Nc1cc(C(F)(F)F)cc(C(F)(F)F)c1 [Compound 1122] | 110 | 142 | 
4 | O=C(Cc1cccc(C(F)(F)F)c1)Nc1ccc2nc(NC(=O)c3cscn3)sc2c1 [Compound 1158] | 45 | 250 | 180
5 | CC(C(=O)Nc1nc2ccc(NC(=O)c3cscn3)cc2[nH]1)c1cccc(Cl)c1 (stereo not shown) [Compound 1037] | 69 |  | 
6 | N#Cc1cccc(CC(=O)Nc2nc3ccc(NC(=O)c4cscn4)cc3s2)c1 [Compound 1098] | 74 |  | 
7 | O=C(Cc1ccc(NC(=O)c2cscn2)nc1)Nc1cc(C(F)(F)F)cc(C(F)(F)F)c1 [Compound 1131] | 143 | 1520 | 220
8 | O=C(Cc1cccc(C(F)(F)F)c1)Nc1ccc(NC(=O)c2cscn2)nc1 [Compound 1027] |  | 2800 | 
9 | CC(C(=O)Nc1nc2ccc(NC(=O)c3cscn3)cc2n1C)c1cccc(Cl)c1 (stereo not shown) [Compound 1137] | 1600 | 1700 | 
